Data: ChEMBL document CHEMBL5120818, “Discovery and Biosynthesis of Antimicrobial Phenethylamine Alkaloids from the Marine Flavobacterium Tenacibaculum discolor sv11” (2022)

Assays:
Format in all cases: functional
Bacillus subtilis = assay: Antibacterial activity against Bacillus subtilis DSM10 measured after 18 hrs by micro broth dilution assay
[1] = tested on: Mycolicibacterium smegmatis; assay: Antibacterial activity against Mycobacterium smegmatis ATCC607 measured after 48 hrs by BacTiter-glo assay
Listeria monocytogenes = assay: Antibacterial activity against Listeria monocytogenes DSM20600 measured after 48 hrs by BacTiter-glo assay
Staphylococcus aureus = assay: Antibacterial activity against Staphylococcus aureus ATCC25923 measured after 18 hrs by micro broth dilution assay
Escherichia coli [2] = assay: Antibacterial activity against Escherichia coli ATCC25922 measured after 18 hrs by micro broth dilution assay
Escherichia coli [3] = assay: Antibacterial activity against delta tolC deficient Escherichia coli ATCC25922 measured after 18 hrs by micro broth dilution assay
Candida albicans = assay: Antifungal activity against Candida albicans FH2173 measured after 48 hrs by BacTiter-glo assay
Aspergillus flavus = assay: Antifungal activity against Aspergillus flavus ATCC9170 measured after 24 hrs by BacTiter-glo assay
Caenorhabditis elegans = assay: Antihelminthic activity against Caenorhabditis elegans N2 assessed as reduction in worm motility measured after 2 days by binocular dissecting microscopy; conditions: N2, 48 h, time 2 day

Row | MIC (Bacillus subtilis) | MIC [1] | MIC (Listeria monocytogenes) | MIC (Staphylococcus aureus) | MIC (Escherichia coli [2]) | MIC (Escherichia coli [3]) | MIC (Candida albicans) | MIC (Aspergillus flavus) | MIC (Caenorhabditis elegans) | SMILES
1 | 4 µg/mL | 8 µg/mL | 4 µg/mL | 8 µg/mL | > 64 µg/mL | > 64 µg/mL | 16 µg/mL | 16 µg/mL | 64 µg/mL | CCCC1=[N+](CCc2ccccc2)C(C)(CCC(=O)c2ccccc2N)C(NCCc2ccccc2)=C1 (centres undefined)
2 | 16 µg/mL | 8 µg/mL | > 64 µg/mL | 64 µg/mL | > 64 µg/mL | > 64 µg/mL | > 64 µg/mL | > 64 µg/mL | > 64 µg/mL | CCCc1n(CCc2ccccc2)c(C)c(C)[n+]1CCc1ccccc1
3 | 32 µg/mL | 8 µg/mL | > 64 µg/mL | 64 µg/mL | > 64 µg/mL | > 64 µg/mL | > 64 µg/mL | > 64 µg/mL | > 64 µg/mL | CCCc1n(CCc2ccccc2)c(C)c(CC)[n+]1CCc1ccccc1
4 | > 64 µg/mL | > 64 µg/mL | > 64 µg/mL | > 64 µg/mL | > 64 µg/mL | > 64 µg/mL | > 64 µg/mL | > 64 µg/mL | > 64 µg/mL | CCCc1c(CC)cc(CC)c[n+]1CCc1ccccc1
5 | 1 µg/mL | 0.5 µg/mL | 0.5 µg/mL | 0.5 µg/mL | 64 µg/mL | 8 µg/mL | 4 µg/mL | 1 µg/mL | 32 µg/mL | CCCc1cc2n(CCc3ccccc3)cc(-c3ccccc3)cc-2[n+]1CCc1ccccc1
6 | 4 µg/mL | 4 µg/mL | 2 µg/mL | 4 µg/mL | > 64 µg/mL | 64 µg/mL | 8 µg/mL | 8 µg/mL | > 64 µg/mL | CCCc1c(C)cn(CCc2ccccc2)c2cc(CCC)[n+](CCc3ccccc3)c1-2
